Measurements published in publication PMC12764776, “Structural basis of specific lysine transport by Pseudomonas aeruginosa permease LysP” (Nature Communications, 2025).

Columns and labels:
[1] = target: T1, lysine-specific permease (LysP) (Pseudomonas aeruginosa, UniProt Q9HVG3); experiment: microscale thermophoresis; type: binding; set-up: purified GFP-free LysP in LMNG
[2] = target: T1, lysine-specific permease (LysP); experiment: microscale thermophoresis; inhibition of [3H]L-lysine transport in LysP proteoliposomes; type: binding; set-up: purified GFP-free LysP in LMNG
[3] = target: T1, lysine-specific permease (LysP); experiment: cryo-EM structure ([…] Å) and microscale thermophoresis; [3H]L-lysine transport in proteoliposomes (cold L-lysine IC50 […]); type: binding; set-up: purified GFP-free LysP in LMNG (MST); LysP-Nb5755 complex (cryo-EM); with nanobody Nb5755 (cryo-EM structure only)
[4] = target: T2, LysP-GFP fusion (P. aeruginosa LysP with GFP-His8) (P. aeruginosa strain PAO1, UniProt Q9HVG3); experiment: GFP thermal shift (GFP-TS) assay; membranes with LysP-GFP solubilised in 150 mM NaCl, 20 mM Tris-HCl pH 7.5, 1% DDM with or without 1 uM Nb5755, 1 h at 4 °C; 1% beta-OG added; heated 10 min at 4-100 °C; GFP fluorescence of the supernatant; conditions: one partner purified
T2 construct: lysine-specific permease LysP, P. aeruginosa strain PAO1, UniProt Q9HVG3; the same construct as m1 in pWaldo-GFPd, with the GFP-His8 fusion not cut off; The GFP fluorescence is the read-out of the GFP-TS assay; source: E. coli (DE3) C43, in membranes solubilised with 1% DDM, not purified

NCCCC[C@@H](N)C(=O)O [D-lysine]
Kd [1]: 151 µM

NCCSC[C@H](N)C(=O)O [L-4-thialysine, S-(2-aminoethyl)-L-cysteine]
Kd [2]: 31 µM

NCCCC[C@H](N)C(=O)O [L-lysine]
Kd [3]: 14 µM

B1: nanobody Nb5755 (VHH)
VHH: QVQLQESGGGLVQGGSLRLSCAASGRTFSIYGMAWVRQASGKEREFVAAMPRGGGTTNYADSVKGRFSISRDNAKNTVDLQMNSLKPEDTAVYYCVADRGFTLRLGIQHDYWGQGTQVTVSS
notes: raised in a llama immunised with LysP and selected by phage display; Library cloned into the phage display vector pMESy4, which bears the C-terminal His6 and EPEA tags; also called Nanobody 5755; CA5755; source: E. coli BL21 (DE3), periplasm, purified (Ni-NTA, SEC)
increase in melting temperature [4]: 20 °C
